In the supplement of paper PMC11208160:

Test: recombinant barcode read abundance after kanamycin selection (control-corrected) (log10(CPM+1)); higher = more efficient recombination; sequences stand for … in AGTGCAGAGAAAATCGGCCAGTTTTCTCTGCCTGCAGTCCGCATGCCGT…ATTTATGCAGCGGACTGCCTTTCTCCCAAAGTGATAAACCGGACAGTATCATGGACCGGTTTTCCCGGTAATCCGTATTTGCAAGGTTGGTTTCACT; site = the 11-nt target
How it was run: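 Pooled E. coli screen pairing targets with IS621 bridge RNA target-binding loops. Each oligo (promoter, target, barcode, J23119-driven first 104 bridge RNA bases) was Gibson-cloned into a vector with the remaining 73 bp and T7-inducible recombinase, then co-electroporated with a donor plasmid. Two replicates each were plated on chloramphenicol/ampicillin LB agar (control) or chloramphenicol/ampicillin/kanamycin with 0.1 mM IPTG. Recombination efficiency is recombinant-junction barcode counts as CPM, averaged, control-corrected, reported as log10(CPM+1).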

Sequence	recombinant barcode read abundance (log10)
TAGAGGGCTTGGGTTCTAACCTGTTGCGGCA [TAGAGGGCTCC_LTGcore_CT_RTGcore_TG] (site TAGAGGGCTCC) (LTG core: CT, RTG core: TG)	1.66
TAGAGGGGCTGGGTTCTAACCTGTTGCGGGC [TAGAGGGCTCC_LTGcore_GC_RTGcore_GC] (site TAGAGGGCTCC) (LTG core: GC, RTG core: GC)	0.0588
TAGAGGGGTTGGGTTCTAACCTGTTGCGGAC [TAGAGGGCTCC_LTGcore_GT_RTGcore_GT] (site TAGAGGGCTCC) (LTG core: GT, RTG core: GT)	0.189
TAGAGGGTATGGGTTCTAACCTGTTGCGGAG [TAGAGGGCTCC_LTGcore_TA_RTGcore_CT] (site TAGAGGGCTCC) (LTG core: TA, RTG core: CT)	0.204
TAGAGGGTATGGGTTCTAACCTGTTGCGGTA [TAGAGGGCTCC_LTGcore_TA_RTGcore_TA] (site TAGAGGGCTCC) (LTG core: TA, RTG core: TA)	0.481
TCGCGACACTGGGTTCTAACCTGTTGCCGGT [TCGCGACCTCG_LTGcore_AC_RTGcore_AC] (site TCGCGACCTCG) (LTG core: AC, RTG core: AC)	0.102
TCGCGACAGTGGGTTCTAACCTGTTGCCGCT [TCGCGACCTCG_LTGcore_AG_RTGcore_AG] (site TCGCGACCTCG) (LTG core: AG, RTG core: AG)	0.128
TCGCGACATTGGGTTCTAACCTGTTGCCGAG [TCGCGACCTCG_LTGcore_AT_RTGcore_CT] (site TCGCGACCTCG) (LTG core: AT, RTG core: CT)	0.0137
TCGCGACCATGGGTTCTAACCTGTTGCCGTG [TCGCGACCTCG_LTGcore_CA_RTGcore_CA] (site TCGCGACCTCG) (LTG core: CA, RTG core: CA)	0.139
TCGCGACCCTGGGTTCTAACCTGTTGCCGGG [TCGCGACCTCG_LTGcore_CC_RTGcore_CC] (site TCGCGACCTCG) (LTG core: CC, RTG core: CC)	0.353
TCGCGACCTTGGGTTCTAACCTGTTGCCGCC [TCGCGACCTCG_LTGcore_CT_RTGcore_GG] (site TCGCGACCTCG) (LTG core: CT, RTG core: GG)	0.0891
TCGCGACCTTGGGTTCTAACCTGTTGCCGTT [TCGCGACCTCG_LTGcore_CT_RTGcore_AA] (site TCGCGACCTCG) (LTG core: CT, RTG core: AA)	0.0373
TCGCGACGTTGGGTTCTAACCTGTTGCCGAG [TCGCGACCTCG_LTGcore_GT_RTGcore_CT] (site TCGCGACCTCG) (LTG core: GT, RTG core: CT)	0.391
TCTACCCACTGGGTTCTAACCTGTTGCTGGT [TCTACCCCTCA_LTGcore_AC_RTGcore_AC] (site TCTACCCCTCA) (LTG core: AC, RTG core: AC)	0.045
TCTACCCATTGGGTTCTAACCTGTTGCTGAT [TCTACCCCTCA_LTGcore_AT_RTGcore_AT] (site TCTACCCCTCA) (LTG core: AT, RTG core: AT)	0.00785
TCTACCCCCTGGGTTCTAACCTGTTGCTGGG [TCTACCCCTCA_LTGcore_CC_RTGcore_CC] (site TCTACCCCTCA) (LTG core: CC, RTG core: CC)	0.0201
TCTACCCCTTGGGTTCTAACCTGTTGCTGAA [TCTACCCCTCA_LTGcore_CT_RTGcore_TT] (site TCTACCCCTCA) (LTG core: CT, RTG core: TT)	0.241
TCTACCCCTTGGGTTCTAACCTGTTGCTGGG [TCTACCCCTCA_LTGcore_CT_RTGcore_CC] (site TCTACCCCTCA) (LTG core: CT, RTG core: CC)	0.28
TCTACCCCTTGGGTTCTAACCTGTTGCTGTG [TCTACCCCTCA_LTGcore_CT_RTGcore_CA] (site TCTACCCCTCA) (LTG core: CT, RTG core: CA)	0.182
TCTACCCTGTGGGTTCTAACCTGTTGCTGAG [TCTACCCCTCA_LTGcore_TG_RTGcore_CT] (site TCTACCCCTCA) (LTG core: TG, RTG core: CT)	0.0669
TCTACCCTGTGGGTTCTAACCTGTTGCTGCA [TCTACCCCTCA_LTGcore_TG_RTGcore_TG] (site TCTACCCCTCA) (LTG core: TG, RTG core: TG)	0.0126
TGATACCATTGGGTTCTAACCTGTTGCGTAT [TGATACCCTAC_LTGcore_AT_RTGcore_AT] (site TGATACCCTAC) (LTG core: AT, RTG core: AT)	0.0803

Sequence	recombinant barcode read abundance (log10)
TGATACCCCTGGGTTCTAACCTGTTGCGTGG [TGATACCCTAC_LTGcore_CC_RTGcore_CC] (site TGATACCCTAC) (LTG core: CC, RTG core: CC)	0.351
TGATACCCTTGGGTTCTAACCTGTTGCGTGC [TGATACCCTAC_LTGcore_CT_RTGcore_GC] (site TGATACCCTAC) (LTG core: CT, RTG core: GC)	1.67
TGATACCCTTGGGTTCTAACCTGTTGCGTGT [TGATACCCTAC_LTGcore_CT_RTGcore_AC] (site TGATACCCTAC) (LTG core: CT, RTG core: AC)	0.0827
TGATACCCTTGGGTTCTAACCTGTTGCGTTC [TGATACCCTAC_LTGcore_CT_RTGcore_GA] (site TGATACCCTAC) (LTG core: CT, RTG core: GA)	0.335
TGATACCCTTGGGTTCTAACCTGTTGCGTTT [TGATACCCTAC_LTGcore_CT_RTGcore_AA] (site TGATACCCTAC) (LTG core: CT, RTG core: AA)	0.666
TGATACCGCTGGGTTCTAACCTGTTGCGTAG [TGATACCCTAC_LTGcore_GC_RTGcore_CT] (site TGATACCCTAC) (LTG core: GC, RTG core: CT)	0.164
TGATACCTCTGGGTTCTAACCTGTTGCGTAG [TGATACCCTAC_LTGcore_TC_RTGcore_CT] (site TGATACCCTAC) (LTG core: TC, RTG core: CT)	0.146
TGATACCTTTGGGTTCTAACCTGTTGCGTAG [TGATACCCTAC_LTGcore_TT_RTGcore_CT] (site TGATACCCTAC) (LTG core: TT, RTG core: CT)	0.0115
TGTATTCAGTGGGTTCTAACCTGTTGCCTAG [TGTATTCCTAG_LTGcore_AG_RTGcore_CT] (site TGTATTCCTAG) (LTG core: AG, RTG core: CT)	0.0134
TGTATTCATTGGGTTCTAACCTGTTGCCTAT [TGTATTCCTAG_LTGcore_AT_RTGcore_AT] (site TGTATTCCTAG) (LTG core: AT, RTG core: AT)	0.144
TGTATTCCATGGGTTCTAACCTGTTGCCTTG [TGTATTCCTAG_LTGcore_CA_RTGcore_CA] (site TGTATTCCTAG) (LTG core: CA, RTG core: CA)	0.579
TGTATTCCGTGGGTTCTAACCTGTTGCCTAG [TGTATTCCTAG_LTGcore_CG_RTGcore_CT] (site TGTATTCCTAG) (LTG core: CG, RTG core: CT)	0.356
TGTATTCCGTGGGTTCTAACCTGTTGCCTCG [TGTATTCCTAG_LTGcore_CG_RTGcore_CG] (site TGTATTCCTAG) (LTG core: CG, RTG core: CG)	0.0909
TGTATTCCTTGGGTTCTAACCTGTTGCCTAC [TGTATTCCTAG_LTGcore_CT_RTGcore_GT] (site TGTATTCCTAG) (LTG core: CT, RTG core: GT)	0.0923
TGTATTCCTTGGGTTCTAACCTGTTGCCTCA [TGTATTCCTAG_LTGcore_CT_RTGcore_TG] (site TGTATTCCTAG) (LTG core: CT, RTG core: TG)	0.1
TGTATTCCTTGGGTTCTAACCTGTTGCCTCT [TGTATTCCTAG_LTGcore_CT_RTGcore_AG] (site TGTATTCCTAG) (LTG core: CT, RTG core: AG)	0.0303
TGTATTCCTTGGGTTCTAACCTGTTGCCTTG [TGTATTCCTAG_LTGcore_CT_RTGcore_CA] (site TGTATTCCTAG) (LTG core: CT, RTG core: CA)	0.0735
TGTATTCTCTGGGTTCTAACCTGTTGCCTAG [TGTATTCCTAG_LTGcore_TC_RTGcore_CT] (site TGTATTCCTAG) (LTG core: TC, RTG core: CT)	0.0135
TTATAAAAATGGGTTCTAACCTGTTGCCTTT [TTATAAACTAG_LTGcore_AA_RTGcore_AA] (site TTATAAACTAG) (LTG core: AA, RTG core: AA)	0.038
TTATAAAACTGGGTTCTAACCTGTTGCCTAG [TTATAAACTAG_LTGcore_AC_RTGcore_CT] (site TTATAAACTAG) (LTG core: AC, RTG core: CT)	0.39
TTATAAAATTGGGTTCTAACCTGTTGCCTAG [TTATAAACTAG_LTGcore_AT_RTGcore_CT] (site TTATAAACTAG) (LTG core: AT, RTG core: CT)	0.0851
